Measured values as given in patent publication US20260285879A1, “CDK INHIBITOR AND CRYSTAL FORM OF PHARMACEUTICALLY ACCEPTABLE SALT THEREOF, AND USE THEREOF” (priority 2023, published 2026).

Columns and labels:
[1] = Anhydrous crystalline form transformation test; assay type: physicochemical; conditions: mixed sample of equal amounts of crystalline form A-I and A-IV
[2] = tested on: A2780; assay: In vitro tumor cell proliferation inhibition (CTG test); assay type: cell-based, human; conditions: ovarian cancer cells A2780
Method: (§1) The tumor cell strains were cultured in an incubator at 37° C. with 5% CO2. The cells were sub-cultured regularly, and those in the logarithmic growth phase were taken for plating. The cells were stained with trypan blue and the viable cells were counted. The cell concentration was adjusted to an appropriate level. The cell suspension was added to each well of the culture plate, and the culture medium without cells was added to the blank control wells. The culture plate was incubated overnight in an incubator at 37° C., 5% CO2, and 100% RH. […] The compound working solution was added to the cell culture plate, and DMSO at the same final concentration was added to the solvent control wells. Then the plate was returned to the incubator for 4-7 days of culture. The cell viability was detected according to the instructions of the Promega CellTiter-Glo (CTG) Luminescent Cell Viability Assay Kit (Promega-G7573).
(§2) The inhibition rate (IR) of the test compound was calculated using the following equation: […]
(§3) The inhibition rates of the compound at different concentrations were calculated in Excel, then the inhibition curve was plotted using GraphPad Prism software and relevant parameters, including the minimum inhibition rate, maximum inhibition rate, and IC50 were calculated. The IC50 was calculated using the following equation:
(§4) [formula] • X: log (concentration) • Y: response value, negatively correlated with X • HillSlope: slope factor

[3] = tested on: COLO205; assay: as above; assay type: cell-based, human; conditions: Rb+ colorectal cancer cells COLO205
Method: as §1, §2, §3, §4

[4] = tested on: HCT116; assay: as above; assay type: cell-based, human; conditions: Rb+ colorectal cancer cells HCT116
Method: as §1, §2, §3, §4

[5] = tested on: HT-29; assay: as above; assay type: cell-based, human; conditions: Rb+ colorectal cancer cells HT-29
Method: as §1, §2, §3, §4

[6] = tested on: Hep3B(Rb−); assay: as above; assay type: cell-based, human; conditions: Hep3B(Rb−) liver cancer cells
Method: as §1, §2, §3, §4

[7] = tested on: Huh-7; assay: as above; assay type: cell-based, human; conditions: Rb+ liver cancer cells Huh-7
Method: as §1, §2, §3, §4

[8] = tested on: JHH-7; assay: as above; assay type: cell-based, human; conditions: Rb+ liver cancer cells JHH-7
Method: as §1, §2, §3, §4

[9] = tested on: MDA-MB-453; assay: as above; assay type: cell-based, human; conditions: 4-7 days
Method: as §1, §2, §3, §4

[10] = tested on: MDA-MB-468 (Rb−); assay: as above; assay type: cell-based, human; conditions: 4-7 days
Method: as §1, §2, §3, §4

[11] = tested on: MOLM-13; assay: as above; assay type: cell-based, human; conditions: hematological tumor cells MOLM-13
Method: as §1, §2, §3, §4

[12] = tested on: MV-4-11; assay: as above; assay type: cell-based, human; conditions: hematological tumor cells MV-4-11
Method: as §1, §2, §3, §4

[13] = tested on: NCI-H211; assay: as above; assay type: cell-based, human; conditions: small cell lung cancer cells NCI-H211
Method: as §1, §2, §3, §4

[14] = tested on: SK-MEL-5; assay: as above; assay type: cell-based, human; conditions: melanoma SK-MEL-5
Method: as §1, §2, §3, §4

CC(=O)c1c(C)c2cnc(Nc3ccc4c(c3)OC[C@@H]3CN(C5CCN(C)CC5)CCN43)nc2n(C2CCCC2)c1=O [Compound A]
good inhibitory activity: inhibitory activity [2] | inhibitory activity [3] | inhibitory activity [4] | inhibitory activity [5] | inhibitory activity [7] | inhibitory activity [8] | inhibitory activity [11] | inhibitory activity [12] | inhibitory activity [13] | inhibitory activity [14]
exceeding 99%: maximum inhibition rate [6] | Maximum Inhibition Rate (%) [10]
form A-I: Experimental results (crystalline form by XRPD) ([1]; n-Butanol/Anisole (v:v = 1:1), 25° C.) | Experimental results (crystalline form by XRPD) ([1]; n-Butanol/Anisole (v:v = 1:1), 37° C.) | Experimental results (crystalline form by XRPD) ([1]; suspension in n-Butanol, 25° C.) | Experimental results (crystalline form by XRPD) ([1]; suspension in n-Butanol, 37° C.)
significant inhibitory effect: inhibitory effect [6]
~100%: Maximum Inhibition Rate (%) [9]
